According to patent US20220402917A1, “COMPOUND AS SMALL MOLECULE INHIBITOR PD-1/PD-L1 AND APPLICATION THEREOF” (MEDSHINE DISCOVERY INC., priority 2019, published 2022):
Blank lines part the entries; values can stand above or below the molecule they belong to.

What was measured:
PD1/PD-L1 [1] = target: T1, PD1/PD-L1 (Homo sapiens, UniProt Q9NZQ7); test: PD-1/PD-L1 homogeneous time-resolved fluorescence (HTRF) binding experiment; parameters: purchased BPS Biosciences; details: HTRF (TR-FRET), PD-L1-biotin, PD1-Eu
Excerpt: Experimental Example 1: PD-1/PD-L1 Homogenouse Time-Resolved Fluorescence (HTRF) Binding Experiment
When the PD-1 molecule as the donor is very close to the PD-L1 molecule as the acceptor, the donor molecule will transfer the energy to the receptor molecule, which in turn causes the receptor molecule to emit fluorescence. The ability of small molecules to prevent the binding of PD-L1 to PD-1 can be tested by detecting the intensity of fluorescence. A homogeneous time-resolved fluorescence (HTRF) binding experiment is used to detect the ability of the compounds of the present disclosure to inhibit the binding of PD-1/PD-L1.
PD1/PD-L1 TR-FRET detection kit was purchased from BPS Biosciences. Nivo multi-label analyzer (PerkinElmer).
PD1-Eu, Dye-labeled acceptor, PD-L1-biotin and compounds to be tested were diluted with the buffer in the kit. The compounds to be tested were subjected to 5-fold dilution to eight concentration gradients with a row gun. That is, from 40 μM to 0.5 nM, the DMSO concentration was 4%, and a double-well experiment was set up. 5 μL of inhibitor with each concentration gradient were added to the microwell plate, and 5 μL buffer containing 4% DMSO and 5 μL PD-L1-biotin (PD-L1-biotin) (60 nM) were added into well with the maximum signal (Max) and the well with the minimum signal (Min), only 5 μL of buffer was added to the well with the minimum signal (Min), and the incubation was conducted at 25° C. for 20 minutes. After the incubation was completed, 5 μL of diluted PD1-Eu (10 nM) and […] were added to each well. The reaction system was placed at 25° C. for 90 minutes. The TR-FRET signal was read by a multi-label analyzer after the reaction was completed.
(§1) Using the equation (sample−Min)/(Max−Min)×100% to convert the raw data into inhibition rate, and the IC50 value can be obtained by curve fitting with four parameters (obtained from log(inhibitor) vs. response—Variable slope mode in GraphPad Prism). Table 1 provides the inhibitory activity of the compounds of the examples of the present disclosure on PD1/PD-L1 binding
Target sequence in this assay (Q9NZQ7 19-239 limits assumed): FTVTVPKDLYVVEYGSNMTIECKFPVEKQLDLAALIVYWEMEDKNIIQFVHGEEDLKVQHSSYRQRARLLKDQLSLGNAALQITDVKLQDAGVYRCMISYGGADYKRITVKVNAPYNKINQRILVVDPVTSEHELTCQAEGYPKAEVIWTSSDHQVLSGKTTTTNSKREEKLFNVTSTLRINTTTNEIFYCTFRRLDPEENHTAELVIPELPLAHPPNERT

PD1/PD-L1 [2] = target: T1, PD1/PD-L1; test: NFAT activity test (TCR Activitor/PD-L1 CHO cells with PD-1/NFAT Reporter-Jurkat cells); type: cell-based; parameters: host or cells: TCR Activitor/PD-L1 CHO cells; PD-1/NFAT Reporter-Jurkat cells; details: TCR Activitor/PD-L1 CHO cells + PD-1/NFAT Reporter-Jurkat cells, 5 hours, luciferase; for IC50: read-out: IC50, inhibitory activity on PD1/PD-L1 binding (NFAT activity test)
Excerpt: Experimental Example 3: NFAT Activity Test
The engineered T cell expresses PD-1 molecules and T cell receptor (TCR) on the surface, which can activate the NFAT signaling pathway of T cells after co-culturing with engineered antigen presenting cells (APCs). Expression of PD-L1 molecules on APCs can effectively attenuate the NFAT signaling pathway in T cells. PD-L1 inhibitors can be used effectively block the PD-1/PD-L1 regulatory mechanism, thereby reversing the weakened NFAT signaling pathway. After being pretreated with APC, the small molecule is co-cultured with T cells, then the expression of luciferase was detected to indirectly reflect the activation of the NFAT pathway in T cells.
The PD1/PD-L1 NFAT detection kit was purchased from BPS Biosciences. Birght-Glo reagent was purchased from Promega. Nivo multi-label analyzer (PerkinElmer).
The TCR Activitor/PD-L1 CHO cells with a growth confluence of 80% were plated into the plate at 35,000 cells per well and placed in a 37° C. cell culture incubator overnight; the compounds to be tested were diluted 5-fold to the 8th concentration, from 20 μM to 0.25 nM, and the DMSO concentration was 2%, a double-well experiment was set up. The TCR Activitor/PD-L1 CHO cell supernatant was discarded, 50 μl of compound working solution was added to each well, incubated at 37° C. for 30 minutes; after the incubation was completed, 50 μL of PD-1/NFAT Reporter-Jurkat cell suspension with a concentration of 4*10^5 cells/mL was added to each well, incubated at 37° C. for 5 hours. After the incubation was completed, 100 μL Bright-Glo was added to each well, and after mixing, the chemiluminescence signal was detected by a Nivo multi-label analyzer.
as §1, with “Table 3” for “Table 1”, “PD1/PD-L1 binding.” for “PD1/PD-L1 binding”
Target sequence in this assay (Q9NZQ7 19-290): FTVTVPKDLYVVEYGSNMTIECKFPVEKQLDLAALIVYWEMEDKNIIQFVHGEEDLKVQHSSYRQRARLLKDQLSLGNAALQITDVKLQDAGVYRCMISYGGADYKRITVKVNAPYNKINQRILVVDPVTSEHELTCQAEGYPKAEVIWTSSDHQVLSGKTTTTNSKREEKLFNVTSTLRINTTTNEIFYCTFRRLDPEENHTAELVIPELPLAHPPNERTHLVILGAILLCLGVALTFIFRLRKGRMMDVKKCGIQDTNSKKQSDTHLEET

[3] = target: T2, PD-L1 in MDA-MR-231 cells (Homo sapiens, UniProt Q9NZQ7); test: Effect on expression level of PD-L1 in MDA-MR-231 cells (FACS); type: cell-based; details: 24 hours incubation, FACS detection of cell surface PD-L1
T2 construct: endogenous in cells; host or cells: MDA-MB-231
T2 sequence (Q9NZQ7 19-290): as above
Description: Experimental Example 2: Using MDA-MR-231 Cells to Detect the Effect of Compounds on the Expression Level of PD-L1
The use of a triple-negative breast cancer cell line (MDA-MB-231) is an indirect method to assess PD-L1 endocytosis. PD-L1 molecules on the cell surface can be degraded by lysosomal and proteasome pathways, and small molecule inhibitors are added to induce PD-L1 endocytosis. After co-incubating small molecules with MDA-MB-231 cells for 24 hours, flow cytometry (Fluorescence-activated Cell Sorting, FACS) is used to detect the content of PD-L1 on the cell surface, which can indirectly reflect the effect of small molecule-induced PD-L1 endocytosis. Flow cytometry (FACS) is used to detect the effect of the compounds of the present disclosure on the expression level of PD-L1 in MDA-MR-231 cells.
Phosphate buffer (DPBS), 1640 medium, penicillin-streptomycin, fetal bovine serum, non-essential amino acids, 2-hydroxy-1-ethanethiol (2-ME), human interferon γ, LIVE/DEAD staining solution, staining buffer, fixation buffer, 0.25% trypsin, EDTA, anti-human PD-L1, anti-human PD-L1 isotype.
1640 complete medium preparation: 50 mL of fetal bovine serum, 5 mL of non-essential amino acids, 5 mL of penicillin-streptomycin and 0.5 mL of 2-hydroxy-1-ethanethiol were added to 439.5 mL of 1640 medium, and evenly mixed.
10 mM EDTA preparation: 1 mL of 0.5M EDTA was added to 49 mL of DPBS, and evenly mixed.
1) MDA-MB-231 cell counting and plating: The culture flask was taken out, the medium was removed and the culture flask was rinsed once with DPBS. After the culture flask was rinsed, 3 mL of 0.25% trypsin was added to the culture flask and the culture flask was placed in a 37° C. incubator for 1.5 min. The culture flask was taken out, 9 mL of 1640 complete medium was added to stop the reaction, the cells was transferred to a 50 mL centrifuge tube, and centrifuged at 1000 rpm for 5 min at 37° C. An appropriate volume of medium was added to re-suspend the cells according to the number of cells, and the number of cells was counted with a cell counter. The cell concentration was adjusted to 5×10^5 cells/mL with medium. Planking: A volume of 200 μL of cell suspension was added to each well of a 96-well plate, ensure that the number of cells in each well was 1×10^5. The cells were incubated overnight in an incubator. 2) Drug incubation: 100-fold dilution of compounds were prepared, and the drug was subjected to a 5-fold gradient dilution. 2 μL of each 100-fold dilution of compounds were added to each well. The cells were incubated in an incubator at 37° C. for 24 hours. 3) PD-L1 cell staining and FACS detection: the culture plate was taken out and the supernatant medium was discarded. The cells were washed once with 200 μL 1×PBS. 100 μL of EDTA (final concentration of 10 mM) was added to the cell suspension, and the cell suspension was treated at 37° C. for 10 min. Then after the cell suspension was centrifuged at 1500 rpm for 5 min, the cell suspension was washed once with 200 μL of staining solution. Staining: anti-human PD-L1 (2 μL per well) and LIVE/DEAD staining solution (1:1000) were diluted in staining solution, 50 μL of the staining solution was added to each well, and the staining was conducted at 4° C. for 30 min. Then the solution was washed twice with 200 μL of staining solution. Fixation: 100 μL of fixing solution was added to each well, the fixation was conducted at 4° C. for 15 min. The solution was then washed twice with 200 μL of staining solution, and 150 μL of solution was added to re-suspend the cells, followed by FACS detection.
Table 2 provides the effects of the compounds of the examples of the present disclosure on the expression level of PD-L1 in MDA-MR-231 cells.

[4] = Pharmacokinetic test in C57BL/6 mice; type: in vivo; details: mouse, plasma, male C57BL/6 mice; for bioavailability: PO 10 mg/kg vs IV 1 mg/kg, read-out: Bioavailability F; for Cmax / clearance / half-life / Vd: IV 1 mg/kg; for Cmax: PO 10 mg/kg (route not given for Cmax), read-out: Peak concentration Cmax; for clearance: read-out: Clearance CL; for half-life: read-out: Half-life T1/2 (IV) (converted); for Vd: read-out: Tissue distribution Vdss; for AUC(0-t): PO 10 mg/kg, read-out: Area under the drug-time curve AUC0-last PO
Description: Experimental Example 4: Pharmacokinetic Test
Experimental purpose: To study the pharmacokinetics of compounds in C57BL/6 mice.
Experimental materials: C57BL/6 mice (male, 8 weeks old, body weight 25 g-30 g)
Experimental operation: The pharmacokinetic characteristics of rodents after intravenous (IV) and oral (PO) administration of compounds were tested in standard protocols. In the experiment, the candidate compounds were formulated into 1 mg/mL clear solutions, and administered to mice via a single intravenous injection and oral administration. The vehicle of intravenous and oral administration was 5% DMSO/5% polyethylene glycol 15-hydroxystearate (Solutol)/90% aqueous solution. Four male C57BL/6 mice were used in the experiment, wherein two mice were administered intravenously at a dose of 1 mg/kg, and the plasma samples were collected 0.0833, 0.25, 0.5, 1, 2, 4, 6, 8 and 24 h after administration, the other two mice were given oral gavage at a dose of 10 mg/kg, and the plasma samples were collected 0.25, 0.5, 1, 2, 4, 6, 8, and 24 h after administration. Whole blood samples within 24 hours were collected, centrifuged at 3000 g for 15 minutes, and the supernatant was separated to obtain plasma samples. Acetonitrile solution containing internal standard was added thereto to precipitate proteins, the mixture was thoroughly mixed and centrifuged to obtain the supernatant for injection. The plasma concentration was quantified by LC-MS/MS analysis method, and the pharmacokinetic parameters were calculated, such as peak concentration (Cmax), clearance (CL), half-life (T1/2), […] (Vdss), area under the drug-time curve (AUC0-last), bioavailability (F) and so on.

Structure (SMILES): Cc1cc(C(=O)Nc2cccc(-c3cccc(NC(=O)c4ccc(CNCCO)cn4)c3C)c2Cl)nc2c1CCN(C(CO)CO)C2 [Compound 11]
IC50 (PD1/PD-L1 [1]): 4.54 nM | Maximum effect (induction fold) (PD1/PD-L1 [2]): 3.81 induction fold | IC50 (PD1/PD-L1 [2]): 42.5 nM | IC50 [3]: 25.1 nM

Structure (SMILES): Cc1cc(C(=O)Nc2cccc(-c3cccc(NC(=O)c4ccc(CNCCO)cn4)c3C)c2Cl)nc2c1CCN(C1CCC(O)CC1)C2 (centres unmarked) [Compound 15]
IC50 (PD1/PD-L1 [1]): 8.86 nM | Maximum effect (induction fold) (PD1/PD-L1 [2]): 3.80 induction fold | IC50 (PD1/PD-L1 [2]): 33.9 nM | IC50 [3]: 29.3 nM

Structure (SMILES): Cc1cc(C(=O)Nc2cccc(-c3cccc(NC(=O)c4ccc(CNCCO)cn4)c3C)c2Cl)nc2c1CCN(CC(=O)O)C2 [Compound 17]
IC50 (PD1/PD-L1 [1]): 1.49 nM | Maximum effect (induction fold) (PD1/PD-L1 [2]): 4.23 induction fold | IC50 (PD1/PD-L1 [2]): 25.1 nM | IC50 [3]: 0.75 nM

Structure (SMILES): Cc1cc(C(=O)Nc2cccc(-c3cccc(NC(=O)c4ccc(CNCCO)cn4)c3C)c2Cl)nc2c1CCN(C1CCC(C)(C(=O)O)CC1)C2 (centres unmarked) [Compound 20]
IC50 (PD1/PD-L1 [1]): 3.58 nM | Maximum effect (induction fold) (PD1/PD-L1 [2]): 3.43 induction fold | IC50 (PD1/PD-L1 [2]): 16.9 nM

Structure (SMILES): COc1cc(C(=O)Nc2cccc(-c3cccc(-c4cnc(CN5CC(C)(O)C5)c(OC)n4)c3Cl)c2Cl)nc2c1CCN(CCO)C2 [Compound 42]
Maximum effect (induction fold) (PD1/PD-L1 [2]): 4.39 induction fold | IC50 (PD1/PD-L1 [2]): 23.4 nM | IC50 [3]: 9.48 nM | bioavailability [4]: 61.6% | Cmax [4]: 260 nM | clearance [4]: 36.6 mL/min/kg | half-life [4]: 16.4 h | Vd [4]: 40.8 L/kg | AUC(0-t) [4]: 3.1 µM·h

Structure (SMILES): COc1nc(-c2cccc(-c3cccc(NC(=O)c4cc(C)c5c(n4)CN(CCO)C5)c3Cl)c2Cl)cnc1CN1CC(O)C1 [Compound 50]
Maximum effect (induction fold) (PD1/PD-L1 [2]): 4.55 induction fold | IC50 (PD1/PD-L1 [2]): 45.8 nM | bioavailability [4]: 63.5% | Cmax [4]: 221 nM | clearance [4]: 85.5 mL/min/kg | half-life [4]: 3.72 h | Vd [4]: 18.3 L/kg | AUC(0-t) [4]: 1.66 µM·h

Other lines, results leading:

IC50 (PD1/PD-L1 [1]): 2.08 nM | Maximum effect (induction fold) (PD1/PD-L1 [2]): 3.71 induction fold | IC50 (PD1/PD-L1 [2]): 34.9 nM | IC50 [3]: 62.5 nM
Structure (SMILES): Cc1cc(C(=O)Nc2cccc(-c3cccc(NC(=O)c4ccc(CNCCO)cn4)c3C)c2C)nc2c1CCN(CCO)C2 [Compound 1]

IC50 (PD1/PD-L1 [1]): 2.1 nM
Structure (SMILES): Cc1cc(C(=O)Nc2cccc(-c3cccc(NC(=O)c4ccc(CNCCO)cn4)c3C)c2C)nc2c1CN(CCO)CC2 [Compound 2]

IC50 (PD1/PD-L1 [1]): 4.65 nM | Maximum effect (induction fold) (PD1/PD-L1 [2]): 3.54 induction fold | IC50 (PD1/PD-L1 [2]): 14.3 nM | IC50 [3]: 93.2 nM
Structure (SMILES): Cc1cc(C(=O)Nc2cccc(-c3cccc(NC(=O)c4ccc(CNCCO)cn4)c3Cl)c2C)nc2c1CCN(CCO)C2 [Compound 6]

IC50 (PD1/PD-L1 [1]): 3.22 nM | Maximum effect (induction fold) (PD1/PD-L1 [2]): 3.38 induction fold | IC50 (PD1/PD-L1 [2]): 38.4 nM
Structure (SMILES): Cc1cc(C(=O)Nc2cccc(-c3cccc(NC(=O)c4ccc(CNCCO)cn4)c3C)c2C#N)nc2c1CCN(CCO)C2 [Compound 7]
